Test systems include A549 NSCLC; HOP-92 NSCLC; OVCAR-3 ovarian; OVCAR-5 ovarian; SNB-19 CNS; SNB-75 CNS; SR leukemia.
Test in all cases: NCI tumour cell line growth inhibition, 48 h

Each structure is given as a SMILES string.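 Protocol summary: plate cells (96-well), add compound at 5 concentrations, incubate 48 h, interpolate endpoints linearly. TGI is the concentration that stops growth completely.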

With `CC1=C(/C=C/C(C)=C/C=C/C(C)=C/C=C/C=C(C)/C=C/C=C(C)/C=C/C2=C(C)C(=O)C(O)CC2(C)C)C(C)(C)CC(O)C1=O` (stereo not drawn), the TGI with A549 NSCLC, in the assay with HOP-92 NSCLC, in the assay with OVCAR-3 ovarian, in the assay on OVCAR-5 ovarian, with SNB-19 CNS and with SNB-75 CNS was above 100 µM in each case. In the assay with SR leukemia, this compound showed a TGI above 100 µM.

With `CCOC(=O)C1=C(Nc2ccc(Cl)c(Cl)c2)OC/C1=N\NC(=O)Cc1ccccc1`, the TGI in the assay on A549 NSCLC, with OVCAR-3 ovarian, with OVCAR-5 ovarian, in the assay with SNB-19 CNS and in the assay with SNB-75 CNS was above 100 µM each time.

Take `COc1ccc(N2C(=O)C3c4[nH]c5ccccc5c4C4CCCCCCC4C3C2=O)cc1` (stereo not drawn): the TGI was 22.8 µM in the assay with A549 NSCLC; 33.4 µM in the assay on HOP-92 NSCLC; 16.8 µM in the assay with OVCAR-3 ovarian; above 100 µM in the assay with OVCAR-5 ovarian; 28.1 µM with SNB-19 CNS; 27.8 µM in the assay on SNB-75 CNS. Moreover, the TGI with SR leukemia is above 21.3 µM.

For `CCCCCCCCCCCCCC(=O)NCC(OCC)OCC`, the TGI in the assay with A549 NSCLC, in the assay on HOP-92 NSCLC, in the assay on OVCAR-3 ovarian, with OVCAR-5 ovarian, in the assay with SNB-19 CNS and in the assay on SNB-75 CNS was above 100 µM throughout.

Regarding `O=C1CCN2CCC(=O)c3c2c(cc2ccccc32)N1`, the TGI in the assay with A549 NSCLC, in the assay on OVCAR-3 ovarian, in the assay with OVCAR-5 ovarian, with SNB-19 CNS and in the assay with SNB-75 CNS was above 100 µM in each case.

`COc1cc(/C=C/c2ccc(OC)c(OC)c2OC)cc(OC)c1OC`: the TGI was above 88.9 µM in the assay with A549 NSCLC; 31.8 µM in the assay on HOP-92 NSCLC; 39.3 µM in the assay with OVCAR-3 ovarian; 74.4 µM in the assay on OVCAR-5 ovarian; 97.9 µM in the assay on SNB-19 CNS; 56.7 µM with SNB-75 CNS. In the assay on SR leukemia, this compound returned a TGI of 78.5 µM.

With `COC(=O)C(CC(=O)c1c[nH]c2ccccc12)c1c[nH]c2ccccc12` (stereo not drawn), the TGI in the assay with A549 NSCLC is 60.1 µM; in the assay with OVCAR-3 ovarian it was above 10 µM; with OVCAR-5 ovarian, 42.1 µM; with SNB-75 CNS it was 58 µM.

With `CC1=NOC(=O)C1N=Nc1ccc(Br)c(C)c1` (stereo not drawn), the TGI in the assay with A549 NSCLC was 46 µM; with HOP-92 NSCLC, 34.4 µM; with OVCAR-3 ovarian, 33.6 µM; with OVCAR-5 ovarian it was 72 µM; with SNB-19 CNS, 92.8 µM; in the assay on SNB-75 CNS, 60.5 µM.

As for `COC(=O)[C@]1(C)C(OC)=CC(=O)C2C1[C@H]1CCC[C@@H]21` (stereo partly drawn), the TGI in the assay on A549 NSCLC, in the assay with HOP-92 NSCLC, in the assay with OVCAR-3 ovarian, in the assay with OVCAR-5 ovarian, in the assay on SNB-19 CNS and with SNB-75 CNS was above 100 µM in each case. This compound also came in with a TGI in the assay on SR leukemia above 100 µM.

For `Cc1cccc(N=C2NC(=O)C(CC(=O)Nc3ccc(C)cc3C)S2)c1` (stereo not drawn), the TGI with A549 NSCLC, in the assay with HOP-92 NSCLC, in the assay on OVCAR-3 ovarian, in the assay on OVCAR-5 ovarian, in the assay on SNB-19 CNS and in the assay on SNB-75 CNS was above 100 µM each time. In the assay with SR leukemia, this compound showed a TGI above 100 µM.

For the compound `O=C(CSc1nc(-c2ccccc2)c(-c2ccccc2)[nH]1)NNC(=S)Nc1ccccc1`, the TGI in the assay on A549 NSCLC, with HOP-92 NSCLC, with OVCAR-3 ovarian, in the assay with OVCAR-5 ovarian, in the assay on SNB-19 CNS and in the assay on SNB-75 CNS was above 100 µM each time. In the assay with SR leukemia, this compound yielded a TGI above 100 µM.

With `COc1cc(C2c3cc4c(cc3[C@@H](OCCN(C)C)C3COC(=O)[C@H]23)OCO4)cc(OC)c1O` (stereo partly drawn), the TGI was 1.55 µM in the assay on HOP-92 NSCLC; 5.15 µM in the assay with OVCAR-3 ovarian; 4.26 µM with OVCAR-5 ovarian; above 22.3 µM in the assay with SNB-19 CNS; 3.75 µM with SNB-75 CNS; 0.0831 µM in the assay with SR leukemia.

Take `Clc1ccc(-c2c(C3=NCCN3)nnn2-c2ccccc2)cc1`: the TGI with A549 NSCLC, in the assay on HOP-92 NSCLC, in the assay on OVCAR-3 ovarian, with OVCAR-5 ovarian, in the assay on SNB-19 CNS and in the assay on SNB-75 CNS was above 100 µM throughout. Further, the TGI in the assay on SR leukemia was above 100 µM.

As for `S=P(N1CCCC1)(N1CC1)N1CC1`, the TGI in the assay with A549 NSCLC, in the assay with OVCAR-3 ovarian, with OVCAR-5 ovarian, with SNB-19 CNS, in the assay on SNB-75 CNS and with SR leukemia was above 100 µM throughout.

Regarding `CC(/C=C/NNC1=NC(c2ccccc2)C(c2ccccc2)=NN1)Sc1ccccc1N` (stereo not drawn), the TGI in the assay with A549 NSCLC was 28.7 µM; in the assay with HOP-92 NSCLC, 22.8 µM; in the assay on OVCAR-3 ovarian it was 22 µM; in the assay with OVCAR-5 ovarian it was 31.3 µM; in the assay with SNB-19 CNS, 25.1 µM; in the assay with SNB-75 CNS, 14 µM. In the assay with SR leukemia, the TGI was determined as 21 µM.

With `N#Cc1c(C[n+]2ccccc2)c2ccccc2oc1=O`, the TGI in the assay on A549 NSCLC, in the assay on OVCAR-3 ovarian, in the assay on OVCAR-5 ovarian, in the assay with SNB-19 CNS, in the assay with SNB-75 CNS and in the assay on SR leukemia was above 100 µM throughout.

With `Nc1ccc(C(=O)CC2(O)C(=O)Nc3c(Cl)cc(Cl)cc32)cc1` (stereo not drawn), the TGI in the assay on A549 NSCLC, in the assay with HOP-92 NSCLC, in the assay with OVCAR-3 ovarian, with OVCAR-5 ovarian, in the assay with SNB-19 CNS and in the assay on SNB-75 CNS was above 100 µM throughout.

On to `COc1ccccc1NC(=O)C1=C(C)NC(C)=C(C(=O)Nc2ccccc2OC)C1c1ccc(N(C)C)cc1`, for which the TGI is above 100 µM in the assay on A549 NSCLC; 38.6 µM in the assay on HOP-92 NSCLC; 44.1 µM in the assay on OVCAR-3 ovarian; above 100 µM in the assay with OVCAR-5 ovarian; above 100 µM in the assay with SNB-19 CNS; 80.6 µM in the assay on SNB-75 CNS.

As to `COc1cc(C2c3cc4c(cc3[C@@H](N(C)C)[C@H]3COC(=O)C23)OCO4)cc(OC)c1O` (stereo partly drawn), the TGI in the assay with A549 NSCLC was above 100 µM; in the assay on HOP-92 NSCLC, 68.1 µM; with OVCAR-5 ovarian, above 100 µM; in the assay on SNB-75 CNS, above 100 µM; in the assay on SR leukemia it was above 100 µM.

For `COC(=O)C1Cc2c([nH]c3ccccc23)C(c2ccccc2O)N1Cc1ccccc1` (stereo not drawn), the TGI with A549 NSCLC was above 46.4 µM; in the assay on HOP-92 NSCLC it was 43.5 µM; with OVCAR-3 ovarian, 39.2 µM; with OVCAR-5 ovarian, above 46.4 µM; in the assay with SNB-19 CNS, above 31.6 µM; in the assay on SNB-75 CNS it was 18.8 µM. The compound also yielded a TGI in the assay on SR leukemia above 31.6 µM.

In the case of `Cc1c(Cl)cccc1NC(=O)/C(Cl)=C(\Cl)C(=O)O`, the TGI is 38.9 µM in the assay with A549 NSCLC; 31.6 µM in the assay with HOP-92 NSCLC; 34.1 µM with OVCAR-3 ovarian; 30.6 µM in the assay with OVCAR-5 ovarian; above 100 µM in the assay on SNB-19 CNS; 46.7 µM in the assay on SNB-75 CNS. Moreover, in the assay on SR leukemia, the TGI was found to be 39.6 µM.

For `O=c1cc(-c2ccccn2)[nH]c2cc(F)ccc12`, the TGI in the assay with A549 NSCLC, in the assay with HOP-92 NSCLC, in the assay with OVCAR-3 ovarian, in the assay with OVCAR-5 ovarian, with SNB-19 CNS and in the assay on SNB-75 CNS was above 100 µM throughout. The compound further displayed a TGI with SR leukemia above 100 µM.

As for `COc1c(Sc2ccccc2)cc(Sc2ccccc2)c2cccnc12`, the TGI is above 100 µM with A549 NSCLC; 61.2 µM in the assay on OVCAR-3 ovarian; above 100 µM in the assay on OVCAR-5 ovarian; above 100 µM with SNB-19 CNS; 66 µM in the assay with SNB-75 CNS.

For the compound `CN1C(=O)C2C=CC1C1CCC2N(C)C1=O` (stereo not drawn), the TGI with A549 NSCLC, in the assay on HOP-92 NSCLC, with OVCAR-3 ovarian, with OVCAR-5 ovarian, with SNB-19 CNS and in the assay with SNB-75 CNS was above 100 µM throughout.

For `COC(=O)c1ccc(C(=O)OC)c2nc3cc(C)ccc3nc12`, the TGI with A549 NSCLC, with HOP-92 NSCLC, in the assay on OVCAR-3 ovarian, in the assay with OVCAR-5 ovarian, in the assay with SNB-19 CNS and in the assay on SNB-75 CNS was above 100 µM throughout.

As for `Cc1c(C(=O)CC(=O)C(=O)Nc2cc(Cl)ccc2Cl)[n+](=O)c2ccccc2n1[O-]`, the TGI in the assay on A549 NSCLC is above 100 µM; in the assay on HOP-92 NSCLC, above 100 µM; with OVCAR-3 ovarian it was 61 µM; in the assay with OVCAR-5 ovarian, above 100 µM; in the assay on SNB-19 CNS it was above 100 µM; in the assay with SNB-75 CNS, 78.1 µM. The compound further showed a TGI in the assay with SR leukemia of 63.6 µM.

As to `COC(=O)[C@H]1N[C@@H](C(=O)OC)C23CCC[C@H]2CC[C@]1(C(OC)OC)C3`, the TGI with A549 NSCLC, in the assay with HOP-92 NSCLC, in the assay on OVCAR-5 ovarian, in the assay with SNB-19 CNS and in the assay on SNB-75 CNS was above 100 µM in each case.

Take `CC1(O)CCC2(C)C(=O)C1(C)CCC21OCCO1` (stereo not drawn): the TGI in the assay on A549 NSCLC, in the assay with HOP-92 NSCLC, in the assay on OVCAR-3 ovarian, with OVCAR-5 ovarian, in the assay with SNB-19 CNS and in the assay with SR leukemia was above 100 µM in each case.

As for `NC(=O)c1csc(C2CCC(CO)O2)n1` (stereo not drawn), the TGI in the assay on A549 NSCLC, in the assay with HOP-92 NSCLC, in the assay with OVCAR-3 ovarian, in the assay on OVCAR-5 ovarian and in the assay on SNB-19 CNS was above 100 µM each time.

The record behind these values is PubChem BioAssay (NCI).
